From ChEMBL document CHEMBL3044682, “QSAR modeling of bifunctional quinolonyl diketo acid derivatives as integrase inhibitors” (Med Chem Res, 2012)

Biological target: Human immunodeficiency virus type 1 integrase (Human immunodeficiency virus 1, UniProt Q7ZJM1)
Test: Inhibition of Human immunodeficiency virus 1 integrase strand transfer activity

Sequence of Human immunodeficiency virus type 1 integrase (Q7ZJM1 whole entry): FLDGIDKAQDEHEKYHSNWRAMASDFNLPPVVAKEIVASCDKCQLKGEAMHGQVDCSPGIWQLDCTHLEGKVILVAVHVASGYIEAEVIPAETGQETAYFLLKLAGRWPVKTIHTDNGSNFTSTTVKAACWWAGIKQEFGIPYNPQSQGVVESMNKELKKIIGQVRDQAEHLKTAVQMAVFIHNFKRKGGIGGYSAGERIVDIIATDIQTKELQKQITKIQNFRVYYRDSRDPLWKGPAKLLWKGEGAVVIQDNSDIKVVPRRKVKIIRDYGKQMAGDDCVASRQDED

SMILES | IC50 [nM]
Cc1cccc(/C=C/c2ccc3ccc(C(=O)O)c(O)c3n2)c1C | 60.6
CC[C@@H](CO)n1cc(CO)c(=O)c2cc(Cc3ccccc3F)c(OC)cc21 | 7.2
O=C(O)/C(O)=C/C(=O)c1ccc2[nH]cc(C(=O)/C=C(\O)C(=O)O)c(=O)c2c1 | 430

Now from value to molecule:

IC50 [nM] | SMILES
1090 | O=C(O)/C(O)=C/C(=O)c1ccc2c(c1)c(=O)c(C(=O)O)cn2Cc1ccc(F)cc1 [13, RDS-1607]
12 | O=C(O)/C(O)=C/C(=O)c1ccc2c(c1)c(=O)c(C(=O)/C=C(\O)C(=O)O)cn2-c1ccccc1
31.3 | O=C(O)/C(O)=C/C(=O)c1cn(Cc2cccc(F)c2)c2ccccc2c1=O
326 | CCOC(=O)/C(O)=C/C(=O)c1cn(Cc2cccc(F)c2)c2ccccc2c1=O [RDS-1624]
